d = 2'-deoxy (DNA); r = 2'-OH (RNA)
Assays:
[1] = tested on: human ex vivo living liver cancer tissues; experiment: Human ex vivo living tumor tissue culture, TECIA/MTT inhibition rate; format: cell-based; conditions: M1 virus 10^7 PFU, 5-Fu 10 mg/L, 96 hours
Protocol: (§1) The ex vivo living tissue was obtained by surgical excision in Tumor Prevention Center of Sun Yat-sen University, stored at 4 □, and then sent to the laboratory within four hours for drug sensitivity test. All the cases were confirmed by a histopathology examination. Under sterile condition, the tumor tissue was taken out, and cut into tissue pieces with a diameter of 0.5-1 mm, placed onto a 24-well culture plate (4-6 pieces per well), and 1 ml DMEM medium was added into each well. After one hour of culture, a projection illuminated image of the tumor tissue piece was taken by an image analyzer specialized for drug sensitivity test.
(§2) The tumor tissue was cultured in a CO2 cell incubator for 12 hours. […] After 96 hours of the infection treatment, MTT (5 mg/ml) was added at 50 μl/well, and cultured for 3 hours. A diffusion light illuminated image of the tumor tissue piece was then taken by an image analyzer specialized for drug sensitivity test, to determine the blue dyed area by formazan in the tumor piece in each well and the coloring degree (blue area, BA). Then the tissue survival rate (survival fraction, SF) was calculated according the following formula: […]

[2] = tested on: human ex vivo living colorectal cancer tissue; experiment: as above; format: cell-based; conditions: M1 virus 10^7 PFU, 5-Fu 10 mg/L, 96 hours
Protocol: as §1, §2

ZAP = ZAP protein expression after ZAP RNA interference fragment (Western blot); format: cell-based, human
Protocol: The cells in the exponential growth phase were selected, and added into a DMEM complete medium (10% fetal bovine serum, 1% double antibody) to prepare a cell suspension, and the cells were inoculated into a 6-well plate at a density of 1×10^5/well. After 24 hours, Si RNA fragment wrapped with RNAiMAX was added. […] After 48 hours of the infection, the specimens were treated.

Molecule	number of cases with inhibition rate (% control) >10% [1]	number of cases with inhibition rate (% control) ≤10% [1]	ratio of cases with inhibition rate (% control) >10% [1]	ratio of cases with inhibition rate (% control) ≤10% [1]	number of cases with inhibition rate (% control) >10% [2]	number of cases with inhibition rate (% control) ≤10% [2]	ratio of cases with inhibition rate (% control) >10% [2]	ratio of cases with inhibition rate (% control) ≤10% [2]	ZAP protein expression quantity (ZAP; HCT116)	ZAP protein expression quantity (ZAP; L-02)	ZAP protein expression quantity (ZAP; PLC)
O=c1[nH]cc(F)c(=O)[nH]1 [5-Fu, 5-fluorouracil]	14	12	53.8%	46.2%	8	5	61.5%	38.5%	–	–	–
ZAP RNA interference fragment: ZAP interference fragment (Si RNA), sense strand SEQ ID No. 8, antisense strand SEQ ID No. 9 (sense CCAAGAGUAGCACUUGUUATT; antisense UAACAAGUGCUACUCUUGGTT; sugars from the 5' end r19 d2, backbone not given here)	–	–	–	–	–	–	–	–	undetectable level	undetectable level	undetectable level
